How the values were obtained:
Format in all cases: cell-based, human
TLR4 = experiment: qRT-PCR RNA expression of TLR4 gene in LS174T cells exposed to HMO; conditions: 48 hours; for fold change in RNA expression of TLR4 relative to Control: normalized to GUSB, P<0.05
Procedure: (§1) The ability of HMOs to increase expression of mucosal innate immune receptors and cytokines was tested by exposing LS174T human colorectal cancer cells, which are a model of human intestinal goblet cells, to either of the HMOs, 2′-FL or LNnT. The LS174T cells were obtained from the American Type Culture Collection (ATCC). LS174T cells were maintained in minimum essential medium supplemented with 10% Fetalplex, 1.5 g/L of Na2CO3, 10 ml/L penicillin G-streptomycin solution at 37° C. in 5% CO2. Cells were plated at 0.2×10^5 cells/ml/well in 24-well plates and allowed to attach for 24-30 hours. Solutions containing each HMO were prepared by resuspending lyophilized HMO in cell culture grade water to a 10% solution and filter-sterilizing before diluting to the appropriate level in culture media. A solution free of carbohydrates (i.e., fresh medium alone, Control) was also prepared using the same procedure. After preparation of the HMO-containing solutions, the LS174T cell cultures were rinsed with 1×HBSS and then incubated in 0.5 ml of fresh medium alone (Control) or containing 0.1 mg/mL or 1 mg/mL of 2′-FL (2FL), LNnT (LNnT), fucose (FUCOSE), or lactose (LAC) for 48 hours. Cells were harvested at the end of incubation with 1 ml of TRIzol to obtain RNA samples. RNA expression levels of the genes for the mucosal innate immune receptor proteins TLR3, TLR4, CCR2 and the cytokine IL1B were determined by quantitative reverse transcriptase polymerase chain reaction (qRT-PCR) of RNA samples from the cells. Fold change (Fold induction) in the RNA expression levels of the genes for the receptor proteins and the cytokine was normalized based on the change in GUSB transcript expression. Reported fold changes are the mean+/−[…]. Treatments with statistically significant differences in fold expression (P<0.05) are reported with different letters above the bars.

IL1B = experiment: qRT-PCR RNA expression of cytokine IL1B gene in LS174T cells exposed to HMO; conditions: 1 mg/mL, 48 hours, normalized to GUSB, P<0.05
Procedure: The ability of HMOs to increase expression of mucosal innate immune receptors and cytokines was tested by exposing LS174T human colorectal cancer cells, which are a model of human intestinal goblet cells, to either of the HMOs, 2′-FL or LNnT. The LS174T cells were obtained from the American Type Culture Collection (ATCC). LS174T cells were maintained in minimum essential medium supplemented with 10% Fetalplex, 1.5 g/L of Na2CO3, 10 ml/L penicillin G-streptomycin solution at 37° C. in 5% CO2. Cells were plated at 0.2×10^5 cells/ml/well in 24-well plates and allowed to attach for 24-30 hours. Solutions containing each HMO were prepared by resuspending lyophilized HMO in cell culture grade water to a 10% solution and filter-sterilizing before diluting to the appropriate level in culture media. A solution free of carbohydrates (i.e., fresh medium alone, Control) was also prepared using the same procedure. […] RNA expression levels of the genes for the mucosal innate immune receptor proteins TLR3, TLR4, CCR2 and the cytokine IL1B were determined by quantitative reverse transcriptase polymerase chain reaction (qRT-PCR) of RNA samples from the cells. […]

CCR2 = experiment: qRT-PCR RNA expression of CCR2 gene in LS174T cells exposed to HMO; conditions: 48 hours; for fold change in RNA expression of CCR2 relative to Control: normalized to GUSB, P<0.05
Procedure: as §1

TLR3 = experiment: qRT-PCR RNA expression of TLR3 gene in LS174T cells exposed to HMO; conditions: 48 hours; for fold change in RNA expression of TLR3 relative to Control: normalized to GUSB, P<0.05
Procedure: as §1

MUC2 = experiment: qRT-PCR RNA expression of MUC2 gene in LS174T cells exposed to HMO; conditions: 0.1 mg/mL, 48 hours

Compound: 2′-fucosyllactose [2′-FL]
- increase in TLR4 expression, 0.1 mg/mL treatment compared with 1 mg/mL treatment (TLR4; 0.1 mg/mL vs 1 mg/mL): greater increase in expression in response to the 0.1 mg/mL 2′-FL treatment than the 1 mg/mL 2′-FL treatment
- fold change in RNA expression of TLR4 relative to Control (TLR4; 0.1 mg/mL): statistically significant fold change
- fold change in RNA expression of TLR4 relative to Control (TLR4; 1 mg/mL): statistically significant fold change
- fold change in RNA expression of IL1B relative to Control (IL1B): statistically significant fold change
- increase in CCR2 expression, 0.1 mg/mL treatment compared with 1 mg/mL treatment (CCR2; 0.1 mg/mL vs 1 mg/mL): greater increase in expression in response to the 0.1 mg/mL 2′-FL treatment than the 1 mg/mL 2′-FL treatment
- fold change in RNA expression of CCR2 relative to Control (CCR2; 0.1 mg/mL): statistically significant fold change
- fold change in RNA expression of CCR2 relative to Control (CCR2; 1 mg/mL): statistically significant fold change
- increase in TLR3 expression, 0.1 mg/mL treatment compared with 1 mg/mL treatment (TLR3; 0.1 mg/mL vs 1 mg/mL): greater increase in expression in response to the 0.1 mg/mL 2′-FL treatment than the 1 mg/mL 2′-FL treatment
- fold change in RNA expression of TLR3 relative to Control (TLR3; 0.1 mg/mL): statistically significant fold change
- fold change in RNA expression of TLR3 relative to Control (TLR3; 1 mg/mL): statistically significant fold change
- MUC2 gene expression (MUC2): significant increase

Compound: CC(=O)N[C@H]1[C@H](O[C@H]2[C@@H](O)[C@@H](CO)O[C@@H](O[C@H]3[C@H](O)[C@@H](O)C(O)O[C@@H]3CO)[C@@H]2O)O[C@H](CO)[C@@H](O[C@@H]2O[C@H](CO)[C@H](O)[C@H](O)[C@H]2O)[C@@H]1O (mixture of isomers) [LNnT, lacto-N-neotetraose]
- fold change in RNA expression of TLR4 relative to Control (TLR4; 1 mg/mL): significant change in expression
- fold change in RNA expression of IL1B relative to Control (IL1B): significant change in expression
- fold change in RNA expression of CCR2 relative to Control (CCR2; 0.1 mg/mL): significantly enhanced
- fold change in RNA expression of CCR2 relative to Control (CCR2; 1 mg/mL): significant change in expression
- fold change in RNA expression of TLR3 relative to Control (TLR3; 1 mg/mL): significant change in expression
